Patent US9562043B2 (EA Pharma Co., Ltd., priority 2012, dated 2017)

Key:
human TRPA1 = target: T1, human TRPA1 (Homo sapiens, UniProt O75762); assay: Measurement of TRPA1 antagonist activity (intracellular calcium increase, FLIPR); type: cell-based; details: 293T cells transfected with human TRPA1 expression plasmid, allylisothiocyanate 20 μM stimulation, calcium fluorescence, read-out: antagonism hTRPA1
T1 construct: host or cells: human embryonic kidney-derived 293T cells, transient transfection with pcDNA3.1/zeo(+) plasmid
T1 sequence (O75762 whole entry): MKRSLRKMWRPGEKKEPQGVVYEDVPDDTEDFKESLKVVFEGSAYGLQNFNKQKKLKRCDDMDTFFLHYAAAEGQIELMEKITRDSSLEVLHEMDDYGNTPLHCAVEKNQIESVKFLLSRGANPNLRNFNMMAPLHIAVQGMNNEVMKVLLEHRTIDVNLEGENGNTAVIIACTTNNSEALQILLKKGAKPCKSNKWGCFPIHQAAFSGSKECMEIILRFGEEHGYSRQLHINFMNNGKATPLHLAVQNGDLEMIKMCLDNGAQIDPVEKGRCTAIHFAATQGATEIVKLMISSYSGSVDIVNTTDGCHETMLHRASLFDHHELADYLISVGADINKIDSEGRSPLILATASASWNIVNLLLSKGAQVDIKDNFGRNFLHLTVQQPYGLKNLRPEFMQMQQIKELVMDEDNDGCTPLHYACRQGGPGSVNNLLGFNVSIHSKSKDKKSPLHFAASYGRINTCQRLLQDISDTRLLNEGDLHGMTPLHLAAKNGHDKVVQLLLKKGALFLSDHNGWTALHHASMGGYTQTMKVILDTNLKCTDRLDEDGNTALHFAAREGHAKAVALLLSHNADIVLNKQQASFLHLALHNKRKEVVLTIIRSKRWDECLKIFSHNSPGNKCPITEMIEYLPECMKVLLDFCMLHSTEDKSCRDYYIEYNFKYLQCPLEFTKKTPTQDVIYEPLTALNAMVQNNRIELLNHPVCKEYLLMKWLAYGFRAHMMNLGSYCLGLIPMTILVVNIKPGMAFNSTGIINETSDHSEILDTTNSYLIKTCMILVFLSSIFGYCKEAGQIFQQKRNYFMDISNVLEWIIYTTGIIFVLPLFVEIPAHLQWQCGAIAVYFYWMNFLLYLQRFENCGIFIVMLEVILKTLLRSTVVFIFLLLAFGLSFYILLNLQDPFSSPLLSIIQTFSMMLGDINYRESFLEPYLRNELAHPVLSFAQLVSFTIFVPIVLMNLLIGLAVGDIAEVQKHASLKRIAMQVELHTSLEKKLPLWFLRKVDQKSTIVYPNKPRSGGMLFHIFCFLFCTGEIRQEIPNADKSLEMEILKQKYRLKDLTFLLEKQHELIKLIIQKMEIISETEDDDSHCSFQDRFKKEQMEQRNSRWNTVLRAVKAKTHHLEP
Text: Measurement of TRPA1 Antagonist Activity
Human TRPA1 Expression Plasmid
As cDNA encoding human TRPA1 (GenBank accession No. […]), a commercially available product was purchased (manufactured by Kazusa DNA Research Institute, clone No.: pFN21AB7348, item No.: FHC07217). Using this as a template, full-length human TRPA1 gene was amplified using the primer sequences shown below, by reaction using DNA polymerase (manufactured by Stratagene, trade name: PfuUltra High-Fidelity DNA Polymerase).
A recognition site (underlined) of restriction enzyme HindIII was added to the 5′ side, and XbaI site (underlined) was added to the 3′ side, and GTT of the template sequence was changed to termination codon TAG (bold). The obtained double stranded DNA was enzyme-digested with HindIII and XbaI, and introduced into a multicloning site of expression plasmid pcDNA3.1/zeo(+) (manufactured by Invitrogen) to give a human TRPA1 expression plasmid.
Human embryonic kidney-derived 293T cells were cultured in Dulbecco's Modified Eagle Medium containing 10% fetal bovine serum, 10 unit penicillin, and 10 μg streptomycin, plated on a petri dish having a diameter of 10 cm at 3×10^6 cells, and cultured for 24 hr. A medium containing a reduced amount of serum (manufactured by Invitrogen, trade name: OPTI-MEM, 600 μL), a gene insertion reagent (manufactured by Mirus Bio, trade name: Mirus TransIT-293, 18 μL), and human TRPA1 expression plasmid (6 μg) were mixed, the total amount of the mixture was added to the cells on the petri dish to allow for gene transfer. The cells were recovered about 8 hr later, plated on a poly-D-lysine coated 384 well black/clear bottom plate at 7,500-12,000 cells/well, and cultured overnight.
Measurement of Intracellular Calcium Increase
The 384 well plate was recovered, and the medium was removed. A calcium-bonded fluorescent indicator (manufactured by Molecular Device, trade name: Calcium4 Assay Kit, 40 μL) dissolved in assay buffer (1×HBSS, 20 mM HEPES, pH 7.2) was added, and the cells were stained in a 37° C. incubator for 1 hr. The cells were taken out at room temperature and left standing for 15 min or more. A test substance (10 μL) was added by a 384 well type dispenser, and the mixture was incubated at room temperature for 10 min. Then, allylisothiocyanate (12.5 μL) at a final concentration of 20 μM was added by a fluorescence imaging plate reader (manufactured by Molecular Device, FLIPR), and changes in the relative fluorescence intensity were measured for 5 min.
Test Substance Preparation
The test substance was dissolved in dimethyl sulfoxide and serially diluted with an assay buffer containing 0.1% bovine serum albumin (1×HBSS, 20 mM HEPES, pH 7.2) to a 5-fold concentration of the evaluation concentration. Allylisothiocyanate, which is a known TRPA1 activator, was dissolved in dimethyl sulfoxide to 100 mM, and further diluted 5-fold (100 μM) of the final concentration, like the test substance.
Calculation of Antagonist Activity
Under the test substance-free conditions, the maximum variation range of the fluorescence intensity before and after allylisothiocyanate stimulation was defined to be 100% activity rate, and the variation range before and after buffer stimulation was defined as 0% activity rate. The activity rate on addition of the test substance was determined, and the numerical value obtained by subtracting the activity rate from 100 was defined to be an inhibitory rate. IC50, which is the concentration of the test substance necessary for reaching the 50% inhibitory rate, was calculated from the sigmoid approximate curve by a spreadsheet software Excel-Fit.

TRPA1 channel = target: T2, TRPA1 channel (Mus musculus, UniProt Q8BLA8); assay: AITC-induced pain behavior evaluation test (mouse licking model); type: in vivo; details: male ICR mice; p.o. 30 mpk, 1 h before AITC (0.1%) s.c. to sole; licking time in 5 min vs vehicle
T2 construct: from tissue; host or cells: living male ICR mice (sole of the left leg, sensory nerves)
T2 sequence (Q8BLA8 whole entry): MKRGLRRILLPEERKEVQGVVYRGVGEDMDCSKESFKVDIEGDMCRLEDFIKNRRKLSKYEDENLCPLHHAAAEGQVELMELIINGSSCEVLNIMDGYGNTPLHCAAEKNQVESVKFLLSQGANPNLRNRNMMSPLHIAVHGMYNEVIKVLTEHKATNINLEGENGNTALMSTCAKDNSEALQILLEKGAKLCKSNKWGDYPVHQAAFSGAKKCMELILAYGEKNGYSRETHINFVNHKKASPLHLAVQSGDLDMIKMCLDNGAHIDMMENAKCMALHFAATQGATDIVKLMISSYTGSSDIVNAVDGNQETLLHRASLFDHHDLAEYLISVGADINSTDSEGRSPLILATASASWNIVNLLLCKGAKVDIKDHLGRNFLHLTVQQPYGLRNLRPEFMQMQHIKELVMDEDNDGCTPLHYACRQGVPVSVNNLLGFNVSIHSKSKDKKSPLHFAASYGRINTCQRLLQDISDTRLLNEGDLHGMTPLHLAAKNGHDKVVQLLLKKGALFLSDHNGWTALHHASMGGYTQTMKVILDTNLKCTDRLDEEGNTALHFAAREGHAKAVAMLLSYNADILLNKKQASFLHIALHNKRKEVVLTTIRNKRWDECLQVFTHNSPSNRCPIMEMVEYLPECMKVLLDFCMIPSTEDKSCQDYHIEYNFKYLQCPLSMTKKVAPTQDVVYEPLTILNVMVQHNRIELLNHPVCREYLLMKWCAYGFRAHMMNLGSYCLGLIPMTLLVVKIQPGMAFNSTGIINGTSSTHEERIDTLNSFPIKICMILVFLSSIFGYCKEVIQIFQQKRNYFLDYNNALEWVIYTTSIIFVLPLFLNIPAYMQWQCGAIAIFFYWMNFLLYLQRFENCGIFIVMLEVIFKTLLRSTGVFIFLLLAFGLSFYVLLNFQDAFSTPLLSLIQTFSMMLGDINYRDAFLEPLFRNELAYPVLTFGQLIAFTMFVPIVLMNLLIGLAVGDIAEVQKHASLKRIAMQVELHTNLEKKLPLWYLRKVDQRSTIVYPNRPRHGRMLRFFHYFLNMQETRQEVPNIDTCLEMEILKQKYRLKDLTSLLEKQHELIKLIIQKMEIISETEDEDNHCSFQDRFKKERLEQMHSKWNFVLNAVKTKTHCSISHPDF
Method: AITC-Induced Pain Behavior Evaluation Test
To evaluate the effectiveness of the test substance in vivo, allylisothiocyanate (AITC)-induced pain behavior evaluation test was performed using mice.
AITC is a selective agonist of the TRPA1 channel, and causes a pain behavior by TRPA1 activation when administered to animal. Therefore, the intensity of the TRPA1 antagonist action of the test substance in the living body can be evaluated by measuring the pain behavior after AITC administration.
1. Administration of Test Substance to Animal
As the animal, male ICR mice (6- to 8-week-old) were used. The mice were fasted the previous day of the test. The test substance was intraperitoneally or orally administered for evaluation. In the case of intraperitoneal administration, the substance was administered 30 min before the AITC administration. In the oral administration, the substance was administered 60 min before the AITC administration.
2. AITC-Induced Pain Behavior Evaluation
3. Calculation of Inhibitory Rate
The licking time of the vehicle administration group in each test was taken as 100%, and the activity rate by administration of each test substance (Licking time on test substance administration/Licking time of vehicle administration group×100) was determined, and the numerical value obtained by subtracting the activity rate from 100 was calculated as an inhibitory rate.

| Structure (SMILES) | IC50 (human TRPA1) [nM] | mouse licking model (p.o. 1 h, 30 mpk) (% inh.) (TRPA1 channel) |
| --- | --- | --- |
| O=C(NCc1nc(-c2ccc(C(F)(F)F)cc2)cs1)[C@@H]1CCCN1S(=O)(=O)c1ccc(Cl)s1 [compound 1, (2S)-1-(5-chlorothiophene-2-sulfonyl)-N-({4-[4-(trifluoromethyl)phenyl]thiazol-2-yl}methyl)pyrrolidine-2-carboxamide] | 140 | 36 |
| O=C(NCc1nc(-c2ccc(OC(F)(F)F)cc2)cs1)[C@@H]1C=CCN1S(=O)(=O)c1ccc(Cl)s1 [compound 20, (2S)-1-(5-chlorothiophene-2-sulfonyl)-N-({4-(4-(trifluoromethoxy)phenyl]-thiazol-2-yl}methyl)-3,4-didehydropyrrolidine-2-carboxamide] | 90 | 43 |
| O=C(NCc1nc(-c2ccc(C(F)(F)F)cc2)cs1)[C@@H]1C[C@@H](O)CN1S(=O)(=O)c1ccc(Cl)s1 [compound 28, (2S,4R)-1-(5-chlorothiophene-2-sulfonyl)-N-({4-[4-(trifluoromethyl)phenyl]-thiazol-2-yl}methyl)-hydroxypyrrolidine-2-carboxamide] | 2690 |  |
| O=C(NCc1nc(-c2ccc(C(F)(F)F)cc2)cs1)[C@@H]1CCCN1S(=O)(=O)c1ccc(F)c(Cl)c1 [compound 52, (2S)-1-(3-chloro-4-fluoro-phenyl)sulfonyl-N-({4-[4-(trifluoromethyl)phenyl]-thiazol-2-yl}methyl)pyrrolidine-2-carboxamide] | 290 |  |
| Cc1ccc(-c2csc(CNC(=O)[C@@H]3CCCN3S(=O)(=O)c3ccc(Cl)s3)n2)cc1 [compound 5, (2S)-1-(5-chlorothiophene-2-sulfonyl)-N-{[4-(4-methylphenyl)thiazol-2-yl]methyl}pyrrolidine-2-carboxamide] | 580 |  |
| O=C(NCc1nc(-c2ccc(C(F)(F)F)cc2)cs1)[C@@H]1CCCN1S(=O)(=O)c1ccccc1 [compound 47, (2S)-1-(benzenesulfonyl)-N-({4-[4-(trifluoromethyl)-phenyl]thiazol-2-yl}methyl)-pyrrolidine-2-carboxamide] | 810 |  |
| O=C(NCc1nc(-c2ccc(C(F)(F)F)cc2)co1)[C@@H]1C=CCN1S(=O)(=O)c1ccc(Cl)s1 [compound 25, (2S)-1-(5-chlorothiophene-2-3ulfonyl)-N-({4-[4-(trifluoromethyl)phenyl]-oxazol-2-yl}methyl)-3,4-didehydropyrrolidine-2-carboxamide] | 260 |  |
| O=C(NCc1nc(-c2ccc(C(F)(F)F)cc2)cs1)[C@@H]1C=CCN1S(=O)(=O)c1ccc(Cl)s1 [compound 18, (2S)-1-(5-chlorothiophene-2-sulfonyl)-N-({4-[4-{trifluoromethyl)phenyl]-thiazol-2-yl}methyl)-3,4-didehydropyrrolidine-2-carboxamide] | 170 |  |
